Assay [1] addresses hGYS1 enzyme (recombinant hGYS1/GN1 protein) (Homo sapiens (Human), UniProt P13807). The assay can be described thus: GYS1 coupled enzyme assay (PK/LDH). It is filed as biochemical. The following applies: hGYS1/GN1 50 nM, UDP-Glucose 0.8 mM, G6P 1 mM; geometric mean of at least 2 runs.
In assay [2] the test system is hGYS1 enzyme / glycogen synthesis in HeLa cells. Put plainly: GYS1 cell based assay (glycogen synthesis, Glucose-glo). Further details: species or system human. The following applies: Homo sapiens, HeLa, 24 h, 24 h incubation, 20 mM glucose, geometric mean of at least 2 runs. In outline:
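HeLa cells starved 24 h in medium containing only 1× Glutamax were plated onto compound in medium with 20 mM glucose (1% DMSO final) for 24 h, 37 °C, 5% CO2. Acid lysates were Tris-quenched, glucoamylase-digested (pH 5.3, 1 h, 37 °C) and read by Glucose-glo luminescence. IC50 came from Hill fits, as geometric mean of ≥2 runs.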

Assay [3] concerns the target hGYS2 enzyme (recombinant hGYS2/GN1 protein) (Homo sapiens (Human), UniProt P54840). Put plainly: GYS2 coupled enzyme assay (PK/LDH). It counts as biochemical. The following applies: geometric mean of at least 2 assay runs on separate days, read-out: Avg_IC50. In outline: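 Recombinant hGYS2/GN1 (200 nM) with 2 mM UDP-glucose, 0.2% rabbit liver glycogen, 2 mM glucose-6-phosphate; UDP coupled via PK/LDH (2 mM PEP, 0.6 mM NADH). Buffer 50 mM Tris pH 7.5, 2 mM MgCl2, 100 mM KCl, 2.5% DMSO. A340 slope over 10 min; IC50 from Hill fit of duplicates.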

Each structure is given as a SMILES string.

hGYS1 enzyme (recombinant hGYS1/GN1 protein), sequence (P13807 whole entry): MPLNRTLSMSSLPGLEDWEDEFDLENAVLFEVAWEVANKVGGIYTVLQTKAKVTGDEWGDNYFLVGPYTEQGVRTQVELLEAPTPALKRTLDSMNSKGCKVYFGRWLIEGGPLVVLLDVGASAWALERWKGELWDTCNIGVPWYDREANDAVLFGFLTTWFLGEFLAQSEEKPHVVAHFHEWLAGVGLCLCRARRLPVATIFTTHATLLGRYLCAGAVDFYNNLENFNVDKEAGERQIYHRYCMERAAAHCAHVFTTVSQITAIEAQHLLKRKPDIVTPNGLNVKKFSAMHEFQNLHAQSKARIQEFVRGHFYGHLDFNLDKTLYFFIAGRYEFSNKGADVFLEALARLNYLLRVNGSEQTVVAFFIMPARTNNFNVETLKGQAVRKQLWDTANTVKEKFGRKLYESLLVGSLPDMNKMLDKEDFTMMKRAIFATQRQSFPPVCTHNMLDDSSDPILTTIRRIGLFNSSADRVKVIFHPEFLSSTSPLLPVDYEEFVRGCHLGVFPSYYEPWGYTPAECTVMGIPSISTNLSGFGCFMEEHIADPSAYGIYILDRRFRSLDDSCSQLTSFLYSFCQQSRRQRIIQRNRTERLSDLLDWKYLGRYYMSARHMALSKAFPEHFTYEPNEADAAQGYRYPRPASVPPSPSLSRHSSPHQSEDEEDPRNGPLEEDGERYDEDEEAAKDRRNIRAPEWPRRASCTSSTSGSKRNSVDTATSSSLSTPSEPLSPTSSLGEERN
hGYS1 enzyme (recombinant hGYS1/GN1 protein), sequence (P46976 whole entry partner): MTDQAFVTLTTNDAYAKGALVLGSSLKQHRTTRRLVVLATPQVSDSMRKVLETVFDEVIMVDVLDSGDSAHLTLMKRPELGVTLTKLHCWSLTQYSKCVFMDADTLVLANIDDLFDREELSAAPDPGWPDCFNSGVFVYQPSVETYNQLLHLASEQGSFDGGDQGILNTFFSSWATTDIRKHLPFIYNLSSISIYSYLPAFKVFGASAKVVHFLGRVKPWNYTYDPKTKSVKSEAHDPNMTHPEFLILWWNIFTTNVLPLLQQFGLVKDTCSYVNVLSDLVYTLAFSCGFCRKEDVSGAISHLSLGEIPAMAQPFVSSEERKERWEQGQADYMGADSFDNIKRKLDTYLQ
hGYS2 enzyme (recombinant hGYS2/GN1 protein), sequence (P54840 whole entry): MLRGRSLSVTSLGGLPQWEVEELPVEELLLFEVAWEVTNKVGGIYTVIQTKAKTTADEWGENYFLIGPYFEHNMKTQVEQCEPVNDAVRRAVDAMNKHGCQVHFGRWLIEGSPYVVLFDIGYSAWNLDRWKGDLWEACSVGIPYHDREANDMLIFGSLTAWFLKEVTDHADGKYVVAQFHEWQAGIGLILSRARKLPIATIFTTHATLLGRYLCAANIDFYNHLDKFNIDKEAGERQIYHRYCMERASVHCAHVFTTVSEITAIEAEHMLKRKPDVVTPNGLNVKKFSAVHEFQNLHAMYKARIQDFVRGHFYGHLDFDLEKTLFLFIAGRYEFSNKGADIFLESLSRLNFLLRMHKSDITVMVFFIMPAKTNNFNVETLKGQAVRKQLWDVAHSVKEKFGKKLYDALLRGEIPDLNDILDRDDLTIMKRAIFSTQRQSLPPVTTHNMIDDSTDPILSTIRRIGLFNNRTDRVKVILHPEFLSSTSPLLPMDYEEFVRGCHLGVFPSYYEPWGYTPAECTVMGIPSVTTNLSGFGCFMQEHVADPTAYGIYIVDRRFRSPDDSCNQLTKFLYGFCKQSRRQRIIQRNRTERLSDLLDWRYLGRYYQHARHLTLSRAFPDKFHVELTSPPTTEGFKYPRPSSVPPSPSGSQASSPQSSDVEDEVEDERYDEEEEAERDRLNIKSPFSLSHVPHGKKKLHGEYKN
hGYS2 enzyme (recombinant hGYS2/GN1 protein), sequence (P46976 whole entry partner): as the sequence (P46976 whole entry partner) above

As for `Cc1nn(CC(=O)N2C[C@H](F)C[C@H]2C(=O)N[C@@H](c2ccccc2)c2ccc(C(C)C)c(F)n2)c(=O)o1` [Compound 411, (2S,4R)-4-fluoro-N-[(S)-[6-fluoro-5-(propan-2-yl)pyridin-2-yl](phenyl)methyl)-1-[2-(5-methyl-2-oxo-2,3-dihydro-1,3,4-oxadiazol-3-yl)acetyl]pyrrolidine-2-carboxamide], the results for the IC50 in assay [1], in assay [2] and in assay [3] were 10 nM, 220 nM and > 100000 nM, respectively.

For the molecule `CC(=O)N1CCCC(C(=O)N2C[C@H](F)C[C@H]2C(=O)N[C@@H](c2ccccc2)c2ccc(C(C)C)cc2)C1C` (stereo partly drawn) [Compound 178, (2S,4R)-1-(1-acetyl-2-methylpiperidine-3-carbonyl)-4-fluoro-N-[(S)-phenyl[4-(propan-2-yl)phenyl]methyl]pyrrolidine-2-carboxamide], the IC50 in assay [1] is 38 nM; in assay [2], 410 nM; in assay [3], > 100000 nM.

Take `CC(C)c1ccc([C@@H](NC(=O)[C@@H]2C[C@@H](F)CN2C(=O)Cc2ccc3ncnn3c2)c2ccccc2)cc1F` [Compound 358, (2S,4R)-4-fluoro-N-[(S)-[3-fluoro-4-(propan-2-yl)phenyl](phenyl)methyl]-1-(2-{[1,2,4]triazolo[1,5-a]pyridin-6-yl}acetyl)pyrrolidine-2-carboxamide]: the IC50 in assay [1] was 11 nM; in assay [2], 190 nM; in assay [3], > 100000 nM.

In the case of `O=C(N[C@H](c1ccccc1)c1ccc(C2CC(F)(F)C2)c(F)n1)[C@@H]1C[C@@H](F)CN1C(=O)Cc1ccc(=O)[nH]c1` [Compound 520, (2S,4R)-N-[(R)-[5-(3,3-difluorocyclobutyl)-6-fluoropyridin-2-yl](phenyl)methyl]-4-fluoro-1-[2-(6-oxo-1,6-dihydropyridin-3-yl)acetyl]pyrrolidine-2-carboxamide], the figures for the IC50 in assay [1], in assay [2] and in assay [3] were 557 nM, > 30000 nM and > 100000 nM, respectively.

For `Cc1cc(C(NC(=O)[C@@H]2C[C@@H](F)CN2C(=O)Cc2c(C)nn(C)c2C)c2cccnc2N)ccc1C(C)C` (single isomer, unassigned) [Compound 625, (2S,4R)-N-[(R) or (S)-(2-aminopyridin-3-yl)[3-methyl-4-(propan-2-yl)phenyl]methyl]-4-fluoro-1-[2-(1,3,5-trimethyl-1H-pyrazol-4-yl)acetyl]pyrrolidine-2-carboxamide], the IC50 was 139 nM in assay [1], 1140 nM in assay [2] and > 100000 nM in assay [3].

As for `CC(C)c1ccc([C@@H](NC(=O)[C@@H]2C[C@@H](F)CN2C(=O)Cn2ncc(N(C)C)n2)c2ccccc2)nc1` [Compound 259, (2S,4R)-1-{2-[4-(dimethylamino)-2H-1,2,3-triazol-2-yl]acety}-4-fluoro-N-[(S)-phenyl[5-(propan-2-yl)pyridin-2-yl]methyl]pyrrolidine-2-carboxamide], the IC50 in assay [1] is 15 nM; in assay [2], 280 nM; in assay [3] it was > 100000 nM.

On to `O=C(N[C@@H](c1ccccc1)c1ccc(C2CC2)c(F)c1)[C@@H]1C[C@@H](F)CN1C(=O)Cn1nnc2ccccc21` [Compound 450, (2S,4R)-1-[2-(1H-1,2,3-benzotriazol-1-yl)acetyl]-N-[(S)-(4-cyclopropyl-3-fluorophenyl)(phenyl)methyl]-4-fluoropyrrolidine-2-carboxamide], for which the IC50 in assay [1] is 94 nM; in assay [2], 1730 nM; in assay [3], > 100000 nM.

For the molecule `CC(C)c1ccc([C@@H](NC(=O)[C@@H]2[C@H]3C[C@H]3CN2C(=O)Cc2cnn[nH]2)c2ccccc2)nc1F` [Compound 415, (1S,2S,5R)-N-[(S)-[6-fluoro-5-(propan-2-yl)pyridin-2-yl](phenyl)methyl]-3-[2-(1H-1,2,3-triazol-5-yl)acetyl]-3-azabicyclo[3.1.0] hexane-2-carboxamide], the IC50 was 48 nM in assay [1], 710 nM in assay [2] and > 100000 nM in assay [3].

With `CC(C)c1ccc([C@@H](NC(=O)[C@@H]2C[C@@H](F)CN2C(=O)Cn2ncc(N3CCC3)n2)c2ccccc2)nc1F` [Compound 412, (2S,4R)-1-{2-[4-(azetidin-1-yl)-2H-1,2,3-triazol-2-yl]acetyl}-4-fluoro-N-[(S)-[6-fluoro-5-(propan-2-yl)pyridin-2-yl](phenyl)methyl] pyrrolidine-2-carboxamide], the IC50 in assay [1] is 7 nM; in assay [2], 120 nM; in assay [3] it was > 100000 nM.

In the case of `CC1(c2ccc([C@@H](NC(=O)[C@@H]3C[C@@H](F)CN3C(=O)Cn3c(=O)[nH]c4ccccc43)c3ccccc3)nc2F)CC1` [Compound 599, (2S,4R)-4-fluoro-N-[(S)-[6-fluoro-5-(1-methylcyclopropyl)pyridin-2-yl](phenyl)methyl]-1-[2-(2-oxo-2,3-dihydro-1H-1,3-benzodiazol-1-yl)acetyl]pyrrolidine-2-carboxamide], the values for the IC50 in assay [1], in assay [2] and in assay [3] were 40 nM, 720 nM and > 100000 nM, respectively.

As to `CCN(CC)c1cnn(CC(=O)N2C[C@H](F)C[C@H]2C(=O)N[C@@H](c2ccccc2)c2ccc(C(C)C)c(F)n2)n1` [Compound 414], the IC50 in assay [1] was 3 nM; in assay [2], 60 nM; in assay [3], 78700 nM.

On to `CC(C)c1ccc([C@@H](NC(=O)[C@@H]2C[C@@H](F)CN2C(=O)Cn2nncc2CN)c2ccccc2)cc1` [Compound 240, (2S,4R)-1-{2-[5-(aminomethyl)-1H-1,2,3-triazol-1-yl]acetyl}-4-fluoro-N-[(S)-phenyl[4-(propan-2-yl)phenyl]methyl]pyrrolidine-2-carboxamide], for which the IC50 is 60 nM in assay [1], 2090 nM in assay [2] and > 100000 nM in assay [3].

As for `CC(C)c1ccc([C@@H](NC(=O)[C@@H]2C[C@@H](F)CN2C(=O)Cn2nnnc2C(F)(F)F)c2ccccc2)cc1F` [Compound 359], the IC50 in assay [1] was 63 nM; in assay [2], 960 nM; in assay [3] it was > 100000 nM.

With `O=C(N[C@@H](c1ccccc1)c1ccc(C2CC2)c(F)c1)[C@@H]1C[C@@H](F)CN1C(=O)CN1Cc2ccccc2C1=O` [Compound 453, (2S,4R)-N-[(S)-(4-cyclopropyl-3-fluorophenyl)(phenyl)methyl]-4-fluoro-1-[2-(1-oxo-2,3-dihydro-1H-isoindol-2-yl)acetyl] pyrrolidine-2-carboxamide], the IC50 is 77 nM in assay [1], 1840 nM in assay [2] and > 100000 nM in assay [3].

In the case of `Cn1c(CC(=O)N2C[C@H](F)C[C@H]2C(=O)N[C@@H](c2ccccc2)c2ccc(C3(C)CC3)c(F)n2)cc2ccccc21` [Compound 591, (2S,4R)-4-fluoro-N-[(S)-[6-fluoro-5-(1-methylcyclopropyl)pyridin-2-yl](phenyl)methyl]-1-[2-(1-methyl-1H-indol-2-yl)acetyl]pyrrolidine-2-carboxamide], the IC50 in assay [1] is 32 nM; in assay [2], 310 nM; in assay [3] it was > 100000 nM.

On to `CC(C)c1ccc([C@@H](NC(=O)[C@@H]2C[C@@H](F)CN2C(=O)Cn2ncc(N(C)C)n2)c2ccccc2)cc1F` [Compound 378, (2S,4R)-1-{2-[4-(dimethylamino)-2H-1,2,3-triazol-2-yl]acetyl}-4-fluoro-N-[(S)-[3-fluoro-4-(propan-2-yl)phenyl](phenyl)methyl] pyrrolidine-2-carboxamide], for which the IC50 in assay [1] is 6 nM; in assay [2], 170 nM; in assay [3] it was > 100000 nM.

`CC1(c2ccc([C@@H](NC(=O)[C@@H]3C[C@@H](F)CN3C(=O)Cn3nnc4ccccc43)c3ccccc3)cc2F)CC1` [Compound 575, (2S,4R)-1-[2-(1H-1,2,3-benzotriazol-1-yl)acetyl]-4-fluoro-N-[(S)-[3-fluoro-4-(1-methylcyclopropyl)phenyl](phenyl)methyl]pyrrolidine-2-carboxamide]: the IC50 in assay [1] was 119 nM; in assay [2], 2090 nM; in assay [3], > 100000 nM.

Take `O=C(N[C@@H](c1ccccc1)c1ccc(C2CC(F)(F)C2)c(F)n1)[C@@H]1C[C@@H](F)CN1C(=O)Cn1ccc(=O)[nH]c1=O` [Compound 514, (2S,4R)-N-[(S)-[5-(3,3-difluorocyclobutyl)-6-fluoropyridin-2-yl](phenyl)methyl]-1-[2-(2,4-dioxo-1,2,3,4-tetrahydropyrimidin-1-yl)acetyl]-4-fluoropyrrolidine-2-carboxamide]: the IC50 in assay [1] is 7 nM; in assay [2], 770 nM; in assay [3] it was > 100000 nM.

Consider `CC(=O)NCc1cnnn1CC(=O)N1C[C@H](F)C[C@H]1C(=O)N[C@@H](c1ccccc1)c1ccc(C(C)C)cc1` [Compound 243, (2S,4R)-1-{2-[5-(acetamidomethyl)-1H-1,2,3-triazol-1-yl]acetyl}-4-fluoro-N-[(S)-phenyl[4-(propan-2-yl)phenyl]methyl]pyrrolidine-2-carboxamide], for which the IC50 is 86 nM in assay [1], 2250 nM in assay [2] and > 100000 nM in assay [3].

As for `Cn1nc(CC(=O)N2C[C@H](F)C[C@H]2C(=O)N[C@@H](c2ccccc2)c2ccc(C3(C)CC3)c(F)n2)c2ccccc21` [Compound 596, (2S,4R)-4-fluoro-N-[(S)-[6-fluoro-5-(1-methylcyclopropyl)pyridin-2-yl](phenyl)methyl]-1-[2-(1-methyl-1H-indazol-3-yl)acetyl]pyrrolidine-2-carboxamide], the IC50 in assay [1] is 20 nM; in assay [2] it was 280 nM; in assay [3] it was > 96700 nM.
